Source: the NIST ThermoML archive (doi:10.1021/je400679k)

Experiment: xn = mol fraction of the nth substance listed
Conditions: 101 kPa, Liquid, Vibrating tube method

CNCCCN [N-methyl-1,3-diaminopropane] + CN(CCO)CCO
mass density [kg/m3]
Conditions | x1 = 0.1001 | x1 = 0.2003 | x1 = 0.2999 | x1 = 0.3997 | x1 = 0.5 | x1 = 0.5999 | x1 = 0.7001 | x1 = 0.8002 | x1 = 0.9 | x1 = 1
293.15 K | 1026.93 | 1012.7 | 997.588 | 981.393 | 964.134 | 944.646 | 923.928 | 900.759 | 876.717 | 851.605
303.15 K | 1019.31 | 1005.01 | 989.787 | 973.417 | 956.077 | 936.426 | 915.36 | 892.077 | 868.035 | 842.69
313.15 K | 1011.66 | 997.273 | 981.94 | 965.391 | 947.946 | 928.152 | 907.016 | 883.714 | 859.287 | 833.715
323.15 K | 1003.95 | 989.479 | 974.031 | 957.394 | 939.738 | 919.85 | 898.494 | 874.972 | 850.467 | 824.673
333.15 K | 996.181 | 981.607 | 966.033 | 949.272 | 931.432 | 911.414 | 889.941 | 866.238 | 841.566 | 815.559
343.15 K | 988.342 | 973.656 | 957.953 | 941.042 | 923.056 | 902.895 | 881.277 | 857.422 | 832.576 | 806.37
353.15 K | 980.415 | 965.631 | 949.783 | 932.732 | 914.593 | 894.29 | 872.517 | 848.523 | 823.509 | 797.093
363.15 K | 972.409 | 957.499 | 941.523 | 924.324 | 906.038 | 885.584 | 863.668 | 839.559 | 814.342 | 787.723

CNCCCN [N-methyl-1,3-diaminopropane] + O
mass density [kg/m3]
Conditions | 283.15 K | 293.15 K | 303.15 K | 313.15 K | 323.15 K | 333.15 K | 343.15 K | 353.15 K | 363.15 K
x1 = 0.0051 | 998.237 | 996.63 | 993.985 | 990.476 | 986.217 | 981.304 | 975.769 | 969.7 | 963.045
x1 = 0.02 | 994.774 | 992.593 | 989.479 | 985.566 | 980.949 | 975.762 | 969.886 | 963.52 | 956.663
x1 = 0.04 | 992.84 | 989.571 | 985.557 | 980.873 | 975.589 | 969.758 | 963.394 | 956.509 | 949.281
x1 = 0.0599 | 991.664 | 987.189 | 982.161 | 976.614 | 970.587 | 964.115 | 957.198 | 949.885 | 942.172
x1 = 0.08 | 991.853 | 986.2 | 980.175 | 973.774 | 967.022 | 959.923 | 952.467 | 944.681 | 936.552
x1 = 0.1001 | 990.982 | 984.3 | 977.4 | 970.258 | 962.871 | 955.236 | 947.339 | 939.185 | 930.768
x1 = 0.1496 | 985.446 | 977.467 | 969.396 | 961.197 | 952.86 | 944.358 | 935.674 | 926.784 | 917.665
x1 = 0.2001 | 975.602 | 967.23 | 958.776 | 950.269 | 941.571 | 932.714 | 923.678 | 914.46 | 905.046
x1 = 0.2996 | 953.237 | 944.826 | 936.29 | 927.601 | 918.738 | 909.696 | 900.476 | 891.074 | 881.47
x1 = 0.4001 | 932.582 | 924.145 | 915.578 | 906.849 | 897.972 | 888.926 | 879.715 | 870.324 | 860.741
x1 = 0.4995 | 915.228 | 906.757 | 898.165 | 889.428 | 880.556 | 871.523 | 862.344 | 852.997 | 843.475
x1 = 0.5998 | 900.588 | 892.069 | 883.427 | 874.666 | 865.773 | 856.742 | 847.577 | 838.26 | 828.782
x1 = 0.6995 | 888.711 | 880.119 | 871.429 | 862.629 | 853.712 | 844.674 | 835.508 | 826.212 | 816.767
x1 = 0.7976 | 879.041 | 870.383 | 861.635 | 852.787 | 843.839 | 834.781 | 825.611 | 816.324 | 806.909
x1 = 0.901 | 869.652 | 860.902 | 852.078 | 843.17 | 834.181 | 825.1 | 815.925 | 806.659 | 797.262
x1 = 1 | 860.459 | 851.605 | 842.69 | 833.715 | 824.673 | 815.559 | 806.37 | 797.093 | 787.723
